From ChEMBL document CHEMBL5465560, “Selectivity Literature for EUbOPEN Chemogenomic Library” (2024) come the findings set out here.

Test [1] addresses T1, Dual specificity mitogen-activated protein kinase kinase 4 (Homo sapiens) (UniProt P45985).
T1 sequence (whole entry): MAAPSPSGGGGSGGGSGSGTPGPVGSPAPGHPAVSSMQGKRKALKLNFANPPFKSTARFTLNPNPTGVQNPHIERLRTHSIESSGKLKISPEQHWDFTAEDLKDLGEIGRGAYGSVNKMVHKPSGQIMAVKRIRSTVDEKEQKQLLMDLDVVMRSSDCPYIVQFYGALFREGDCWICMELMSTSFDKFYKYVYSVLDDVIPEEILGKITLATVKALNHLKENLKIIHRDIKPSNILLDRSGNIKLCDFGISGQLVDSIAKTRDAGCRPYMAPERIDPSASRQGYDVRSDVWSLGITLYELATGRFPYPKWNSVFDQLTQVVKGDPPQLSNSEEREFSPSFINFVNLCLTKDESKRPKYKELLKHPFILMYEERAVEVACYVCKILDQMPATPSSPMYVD
The test is described as follows: Selectivity interaction (LanthaScreen Eu Kinase Binding Assay) EUB0001632a MAP2K4. As to conditions: at 10 µM. A general note: In TR-FRET formats the signal depends on donor and acceptor labels being close together.

Test [2] deals with RAF proto-oncogene serine/threonine-protein kinase (Homo sapiens) (UniProt P04049). The test is described as follows: Selectivity interaction (KinomeScan (DiscoverX)) EUB0000607a RAF1. To be noted: at 10 µM.
The target of test [3] is Serine/threonine-protein kinase 38 (Homo sapiens) (UniProt Q15208). The test is described as follows: Selectivity interaction (KinomeScan (DiscoverX)) EUB0001619a STK38. To be noted: at 1 µM.
For test [4], the target named is Leucine-rich repeat serine/threonine-protein kinase 2 (Homo sapiens, UniProt Q5S007). To be noted: PBMC, at 1 µM.
The target in test [5] is Cyclin-dependent kinase 17 (Homo sapiens) (UniProt Q00537). The test is described as follows: Selectivity interaction (ActivX KiNativ screen (kinase selectivity in THP-1 cell lysates)) EUB0000639a CDK17. It is filed as subcellular. As to conditions: lysate, at 5 µM.
For test [6], the target named is Cyclin-dependent kinase 5 (Homo sapiens, UniProt Q00535). Nature of the test: Selectivity interaction (ActivX KiNativ screen (kinase selectivity in THP-1 cell lysates)) EUB0000639a CDK5. Format: subcellular. As to conditions: lysate, at 5 µM.
Test [7] has as its target Serine/threonine-protein kinase 33 (Homo sapiens) (UniProt Q9BYT3). The test is described as follows: Selectivity interaction (KinomeScan (DiscoverX)) EUB0001049a STK33. To be noted: at 1 µM.
Test [8] addresses T2, Aurora kinase A (Homo sapiens) (UniProt O14965).
T2 sequence (whole entry): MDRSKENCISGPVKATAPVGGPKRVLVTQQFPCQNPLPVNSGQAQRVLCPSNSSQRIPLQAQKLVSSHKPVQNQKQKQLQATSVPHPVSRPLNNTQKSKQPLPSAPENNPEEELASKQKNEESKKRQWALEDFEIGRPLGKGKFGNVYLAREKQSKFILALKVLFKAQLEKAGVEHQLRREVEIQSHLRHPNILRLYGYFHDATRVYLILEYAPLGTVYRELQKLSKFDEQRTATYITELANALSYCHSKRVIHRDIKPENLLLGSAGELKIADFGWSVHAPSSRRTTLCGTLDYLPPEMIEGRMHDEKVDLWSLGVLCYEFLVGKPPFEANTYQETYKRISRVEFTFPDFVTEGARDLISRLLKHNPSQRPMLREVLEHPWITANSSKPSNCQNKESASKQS
Nature of the test: Selectivity interaction (Upstate Kinase Profiler service (Millipore)) EUB0000056c STK6. To be noted: at 1 µM.

The target of test [9] is T3, Histone-lysine N-methyltransferase EHMT1 (Homo sapiens) (UniProt Q9H9B1).
T3 sequence (whole entry): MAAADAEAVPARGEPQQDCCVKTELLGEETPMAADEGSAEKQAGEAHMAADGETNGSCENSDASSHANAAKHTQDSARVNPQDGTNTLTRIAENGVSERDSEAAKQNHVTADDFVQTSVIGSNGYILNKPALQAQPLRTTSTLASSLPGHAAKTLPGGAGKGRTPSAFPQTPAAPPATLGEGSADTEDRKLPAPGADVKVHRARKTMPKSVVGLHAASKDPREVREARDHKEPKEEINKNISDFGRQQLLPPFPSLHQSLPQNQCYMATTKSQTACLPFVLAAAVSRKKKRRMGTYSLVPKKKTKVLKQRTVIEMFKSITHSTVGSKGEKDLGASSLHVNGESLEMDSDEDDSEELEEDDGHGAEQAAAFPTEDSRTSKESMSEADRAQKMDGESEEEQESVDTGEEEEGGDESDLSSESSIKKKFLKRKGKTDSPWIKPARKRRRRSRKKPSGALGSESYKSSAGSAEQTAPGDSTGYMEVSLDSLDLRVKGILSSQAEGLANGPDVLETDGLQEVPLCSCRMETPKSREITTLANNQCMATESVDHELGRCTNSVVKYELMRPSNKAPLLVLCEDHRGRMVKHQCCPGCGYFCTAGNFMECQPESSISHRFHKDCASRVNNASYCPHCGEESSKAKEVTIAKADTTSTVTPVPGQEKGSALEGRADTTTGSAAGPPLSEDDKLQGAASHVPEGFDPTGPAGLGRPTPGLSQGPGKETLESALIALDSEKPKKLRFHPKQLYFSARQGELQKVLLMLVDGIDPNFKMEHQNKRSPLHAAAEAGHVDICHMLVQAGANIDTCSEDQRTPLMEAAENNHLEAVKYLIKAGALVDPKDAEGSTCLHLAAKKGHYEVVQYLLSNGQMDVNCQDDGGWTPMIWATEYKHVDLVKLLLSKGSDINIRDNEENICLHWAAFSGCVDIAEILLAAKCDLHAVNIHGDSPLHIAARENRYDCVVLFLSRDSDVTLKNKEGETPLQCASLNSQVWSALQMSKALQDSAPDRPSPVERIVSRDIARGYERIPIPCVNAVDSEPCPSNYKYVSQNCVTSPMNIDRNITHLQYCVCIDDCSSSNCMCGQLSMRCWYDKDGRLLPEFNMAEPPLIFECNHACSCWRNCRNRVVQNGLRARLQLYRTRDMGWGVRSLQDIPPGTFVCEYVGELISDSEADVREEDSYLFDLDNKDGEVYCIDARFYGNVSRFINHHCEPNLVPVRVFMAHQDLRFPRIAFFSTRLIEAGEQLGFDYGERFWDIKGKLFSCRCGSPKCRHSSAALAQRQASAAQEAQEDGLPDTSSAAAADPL
Nature of the test: Selectivity interaction (Methyltransferase screen (radiometric assays, panel of 8 PRMTs, 21 protein lysine methyltransferases, 3 DNA methyltransferases, and one RNA methyltransferase)) EUB0000272b EHMT1.

Serine/threonine-protein kinase 33 (Homo sapiens), sequence (Q9BYT3 whole entry, looked up): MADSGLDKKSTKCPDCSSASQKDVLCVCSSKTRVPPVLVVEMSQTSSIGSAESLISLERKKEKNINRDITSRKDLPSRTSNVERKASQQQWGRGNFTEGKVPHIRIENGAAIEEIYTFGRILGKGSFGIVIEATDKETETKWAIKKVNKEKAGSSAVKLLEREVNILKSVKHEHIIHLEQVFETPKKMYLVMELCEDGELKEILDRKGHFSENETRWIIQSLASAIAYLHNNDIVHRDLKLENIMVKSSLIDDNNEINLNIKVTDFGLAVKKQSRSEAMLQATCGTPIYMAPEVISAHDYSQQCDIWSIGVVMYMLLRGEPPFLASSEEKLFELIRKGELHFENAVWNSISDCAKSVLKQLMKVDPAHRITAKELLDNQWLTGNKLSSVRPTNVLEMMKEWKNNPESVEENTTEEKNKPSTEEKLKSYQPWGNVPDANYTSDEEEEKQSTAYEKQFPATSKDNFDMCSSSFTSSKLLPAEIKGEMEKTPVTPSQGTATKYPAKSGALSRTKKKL
Leucine-rich repeat serine/threonine-protein kinase 2, sequence (Q5S007 whole entry): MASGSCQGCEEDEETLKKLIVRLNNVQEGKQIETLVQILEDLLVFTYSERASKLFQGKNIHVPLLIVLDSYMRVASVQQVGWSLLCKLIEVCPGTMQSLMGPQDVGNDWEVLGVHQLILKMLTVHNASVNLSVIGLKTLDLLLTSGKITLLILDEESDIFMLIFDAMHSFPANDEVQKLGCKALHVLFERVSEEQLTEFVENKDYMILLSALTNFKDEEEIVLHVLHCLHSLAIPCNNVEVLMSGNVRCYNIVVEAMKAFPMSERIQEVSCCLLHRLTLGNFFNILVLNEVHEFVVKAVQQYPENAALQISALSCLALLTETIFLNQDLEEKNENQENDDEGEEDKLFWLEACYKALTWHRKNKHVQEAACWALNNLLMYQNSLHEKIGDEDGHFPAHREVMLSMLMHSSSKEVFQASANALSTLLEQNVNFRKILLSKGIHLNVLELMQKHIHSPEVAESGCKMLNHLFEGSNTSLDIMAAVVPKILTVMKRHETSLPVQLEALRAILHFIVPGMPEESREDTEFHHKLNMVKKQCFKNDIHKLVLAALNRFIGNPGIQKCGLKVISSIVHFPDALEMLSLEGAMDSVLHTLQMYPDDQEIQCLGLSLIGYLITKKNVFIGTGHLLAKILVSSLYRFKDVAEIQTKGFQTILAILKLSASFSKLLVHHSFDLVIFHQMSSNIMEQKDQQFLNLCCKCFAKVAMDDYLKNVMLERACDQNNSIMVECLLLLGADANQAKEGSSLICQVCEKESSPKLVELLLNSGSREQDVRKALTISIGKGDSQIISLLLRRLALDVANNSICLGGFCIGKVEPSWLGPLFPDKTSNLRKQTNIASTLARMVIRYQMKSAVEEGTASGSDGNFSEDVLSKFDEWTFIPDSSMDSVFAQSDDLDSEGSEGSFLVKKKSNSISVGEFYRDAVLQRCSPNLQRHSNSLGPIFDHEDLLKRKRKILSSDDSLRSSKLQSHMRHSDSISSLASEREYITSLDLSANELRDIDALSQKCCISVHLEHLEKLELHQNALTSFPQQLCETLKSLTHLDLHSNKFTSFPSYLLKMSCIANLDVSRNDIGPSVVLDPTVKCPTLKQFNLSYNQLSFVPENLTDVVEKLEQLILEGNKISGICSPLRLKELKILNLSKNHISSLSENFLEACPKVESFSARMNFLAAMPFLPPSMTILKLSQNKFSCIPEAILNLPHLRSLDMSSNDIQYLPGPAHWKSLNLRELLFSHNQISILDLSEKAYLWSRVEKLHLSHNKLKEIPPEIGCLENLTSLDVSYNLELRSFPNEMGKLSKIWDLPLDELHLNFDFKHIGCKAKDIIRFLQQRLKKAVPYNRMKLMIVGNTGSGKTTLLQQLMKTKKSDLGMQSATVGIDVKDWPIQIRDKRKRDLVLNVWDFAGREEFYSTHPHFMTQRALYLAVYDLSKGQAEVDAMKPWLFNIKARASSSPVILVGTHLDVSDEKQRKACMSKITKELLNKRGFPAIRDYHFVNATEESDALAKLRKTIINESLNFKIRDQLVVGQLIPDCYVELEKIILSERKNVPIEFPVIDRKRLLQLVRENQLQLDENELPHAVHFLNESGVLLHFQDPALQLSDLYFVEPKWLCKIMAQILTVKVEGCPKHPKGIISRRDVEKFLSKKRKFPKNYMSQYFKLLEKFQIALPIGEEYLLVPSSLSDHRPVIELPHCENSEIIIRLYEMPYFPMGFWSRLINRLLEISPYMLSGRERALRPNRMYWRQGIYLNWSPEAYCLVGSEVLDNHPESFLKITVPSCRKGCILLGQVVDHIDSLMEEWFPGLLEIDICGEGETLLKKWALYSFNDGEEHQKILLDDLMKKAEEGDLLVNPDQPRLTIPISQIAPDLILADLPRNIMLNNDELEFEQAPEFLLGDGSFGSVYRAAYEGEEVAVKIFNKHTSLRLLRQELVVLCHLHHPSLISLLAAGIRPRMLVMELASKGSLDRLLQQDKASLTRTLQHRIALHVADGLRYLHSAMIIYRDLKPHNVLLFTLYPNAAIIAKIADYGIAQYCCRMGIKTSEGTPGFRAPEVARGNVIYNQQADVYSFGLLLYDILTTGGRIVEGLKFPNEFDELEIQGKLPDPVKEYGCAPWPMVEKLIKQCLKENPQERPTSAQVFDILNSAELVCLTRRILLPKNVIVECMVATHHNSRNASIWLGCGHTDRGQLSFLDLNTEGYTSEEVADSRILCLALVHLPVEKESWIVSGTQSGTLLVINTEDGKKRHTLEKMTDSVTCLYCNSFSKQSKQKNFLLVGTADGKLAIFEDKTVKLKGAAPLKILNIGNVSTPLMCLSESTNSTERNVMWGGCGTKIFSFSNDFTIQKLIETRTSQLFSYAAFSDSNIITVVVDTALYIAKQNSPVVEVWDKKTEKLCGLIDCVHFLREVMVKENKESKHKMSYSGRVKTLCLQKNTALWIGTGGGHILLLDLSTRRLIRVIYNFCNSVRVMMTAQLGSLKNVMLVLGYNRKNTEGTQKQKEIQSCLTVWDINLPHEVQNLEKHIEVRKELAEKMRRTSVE
Serine/threonine-protein kinase 38 (Homo sapiens), sequence (Q15208 2-465 limits assumed): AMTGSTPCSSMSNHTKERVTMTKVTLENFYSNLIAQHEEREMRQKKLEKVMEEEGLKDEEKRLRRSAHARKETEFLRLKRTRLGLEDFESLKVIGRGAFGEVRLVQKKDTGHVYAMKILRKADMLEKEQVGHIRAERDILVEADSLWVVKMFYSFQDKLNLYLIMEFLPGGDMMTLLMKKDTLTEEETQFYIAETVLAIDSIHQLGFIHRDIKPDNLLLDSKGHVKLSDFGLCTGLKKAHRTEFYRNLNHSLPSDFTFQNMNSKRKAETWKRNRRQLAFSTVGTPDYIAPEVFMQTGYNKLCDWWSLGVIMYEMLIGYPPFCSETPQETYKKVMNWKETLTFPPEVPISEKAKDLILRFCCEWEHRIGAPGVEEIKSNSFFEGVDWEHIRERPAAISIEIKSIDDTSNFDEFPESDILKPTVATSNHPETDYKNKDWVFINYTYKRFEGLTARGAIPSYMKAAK
RAF proto-oncogene serine/threonine-protein kinase (Homo sapiens), sequence (P04049 whole entry): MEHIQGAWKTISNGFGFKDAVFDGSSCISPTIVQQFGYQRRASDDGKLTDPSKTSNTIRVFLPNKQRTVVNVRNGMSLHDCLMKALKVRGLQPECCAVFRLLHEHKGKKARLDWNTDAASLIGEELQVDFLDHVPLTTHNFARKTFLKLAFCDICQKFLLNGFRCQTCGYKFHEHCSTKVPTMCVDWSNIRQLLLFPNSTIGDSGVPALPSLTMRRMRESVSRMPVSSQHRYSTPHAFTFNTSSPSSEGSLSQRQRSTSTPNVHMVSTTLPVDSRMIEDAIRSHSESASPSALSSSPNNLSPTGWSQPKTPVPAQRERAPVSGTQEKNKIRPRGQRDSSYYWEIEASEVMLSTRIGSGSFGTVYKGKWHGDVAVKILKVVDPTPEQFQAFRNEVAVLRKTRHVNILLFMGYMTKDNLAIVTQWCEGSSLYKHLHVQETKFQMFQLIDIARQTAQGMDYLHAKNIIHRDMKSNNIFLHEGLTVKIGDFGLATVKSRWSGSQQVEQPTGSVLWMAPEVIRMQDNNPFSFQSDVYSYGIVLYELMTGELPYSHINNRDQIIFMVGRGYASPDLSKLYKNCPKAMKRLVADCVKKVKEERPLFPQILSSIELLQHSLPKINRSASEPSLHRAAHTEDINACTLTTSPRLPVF
Cyclin-dependent kinase 17 (Homo sapiens), sequence (Q00537 whole entry, looked up): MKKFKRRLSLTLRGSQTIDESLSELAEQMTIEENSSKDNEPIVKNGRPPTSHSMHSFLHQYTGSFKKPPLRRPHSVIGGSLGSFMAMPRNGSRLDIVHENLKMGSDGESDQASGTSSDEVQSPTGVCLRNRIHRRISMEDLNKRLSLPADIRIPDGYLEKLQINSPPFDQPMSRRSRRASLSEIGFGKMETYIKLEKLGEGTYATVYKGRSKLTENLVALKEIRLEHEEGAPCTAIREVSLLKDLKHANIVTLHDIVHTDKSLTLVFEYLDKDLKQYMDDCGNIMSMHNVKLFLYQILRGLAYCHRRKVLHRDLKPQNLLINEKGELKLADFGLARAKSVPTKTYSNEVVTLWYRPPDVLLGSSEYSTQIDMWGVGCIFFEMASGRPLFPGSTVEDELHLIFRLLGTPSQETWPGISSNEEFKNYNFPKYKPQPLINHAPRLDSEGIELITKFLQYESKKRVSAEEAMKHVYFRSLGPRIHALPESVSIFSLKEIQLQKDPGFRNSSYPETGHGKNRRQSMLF
Cyclin-dependent kinase 5, sequence (Q00535 whole entry, looked up): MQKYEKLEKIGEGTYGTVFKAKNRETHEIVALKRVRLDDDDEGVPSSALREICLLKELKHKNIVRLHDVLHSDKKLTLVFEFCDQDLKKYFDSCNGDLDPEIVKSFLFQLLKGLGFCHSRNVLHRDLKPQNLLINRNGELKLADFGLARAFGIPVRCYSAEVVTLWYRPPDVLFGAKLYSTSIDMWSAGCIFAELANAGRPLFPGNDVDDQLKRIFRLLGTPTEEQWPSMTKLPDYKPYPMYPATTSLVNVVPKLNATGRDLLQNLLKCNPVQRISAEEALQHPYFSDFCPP

Consider `Cn1cc(-n2cnc3c(NCc4nc5cc(Cl)c(Cl)cc5[nH]4)nc(N4CCOCC4)nc32)cn1`, for which, in [1], the % of inhibition was -62.3%.

On to `CNC(=O)Nc1ccc(-c2nc(N3CC4CCC(C3)O4)c3cnn(C4CCC5(CC4)OCCO5)c3n2)cc1`, for which the % of control in [2] worked out at 100%.

Turning to `N#Cc1cccc(-c2c[nH]c3ncnc(N4CCOCC4)c23)c1`, in [3], the % of control is 89%. Further, the % of inhibition in [4] is 94%.

As to `CC[C@@H]1[C@H](F)C(=O)N[C@@H]1COc1nccc2cc(C(N)=O)c(OC)cc12` [ZIMLOVISERTIB], the % of inhibition in test [5] is 6.5%; in [6], -23.1%.

As to `COc1cc(Nc2nc(C)cc(-c3cnn4nc(OC)ccc34)n2)cc(C(F)(F)F)c1`, the % of control in test [7] was 94%.

On to `Cc1ccc(-c2ccc3c(ccc4sc5c(c43)NC[C@@H](C)NC5=O)n2)cn1`, for which the % of inhibition in test [8] was found to be 32%.

Consider `Cc1cc(C)cc([C@H]2c3cc(C)ccc3NC(=O)CN2C(=O)c2ccc(Br)s2)c1`, for which the % of activity is 98% in test [9] (at 1 µM) and 101% in [9] (at 10 µM).
